Experiment [1] relates to Influenza A virus. Kind of experiment: Inhibition of plaque formation. The experiment is classed as functional, organism-based.
For experiment [2], the target named is Neuraminidase (Influenza A virus (A/Puerto Rico/8/1934(H1N1)), UniProt P03468). Kind of experiment: Inhibition of sialidase activity. The experiment is classed as functional, Influenza A virus (strain: A/PR/8/34).

pIC50: −log10 of the molar value. In brackets after ≈: the same amount, converted by molar mass.

The results in this text go back to ChEMBL document CHEMBL1135180, “Synthesis and anti-influenza virus activity of 4-guanidino-7-substituted Neu5Ac2en derivatives” (Bioorg Med Chem Lett, 2002).

Sequence of Neuraminidase (Influenza A virus (A/Puerto Rico/8/1934(H1N1)), UniProt P03468) (P03468 whole entry): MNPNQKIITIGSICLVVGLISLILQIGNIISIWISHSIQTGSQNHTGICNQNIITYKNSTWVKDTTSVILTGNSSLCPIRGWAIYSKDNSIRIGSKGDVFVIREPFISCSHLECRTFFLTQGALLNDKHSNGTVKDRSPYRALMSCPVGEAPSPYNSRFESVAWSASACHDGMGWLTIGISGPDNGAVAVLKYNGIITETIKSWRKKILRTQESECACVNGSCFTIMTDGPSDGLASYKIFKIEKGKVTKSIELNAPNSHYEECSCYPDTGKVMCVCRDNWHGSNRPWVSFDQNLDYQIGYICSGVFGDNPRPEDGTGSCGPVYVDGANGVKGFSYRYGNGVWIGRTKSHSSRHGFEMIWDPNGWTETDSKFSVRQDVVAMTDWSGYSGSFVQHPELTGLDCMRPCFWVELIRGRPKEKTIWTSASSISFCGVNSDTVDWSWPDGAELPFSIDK

As a reminder, the IC50 is the concentration that inhibits the measured activity by half. Lower therefore signals greater potency in that assay. `CC(=O)N[C@H]1[C@H]([C@H](O)[C@H](O)CO)OC(C(=O)O)=C[C@@H]1NC(=N)N` [ZANAMIVIR]: the IC50 in experiment [1] is 1 ng/mL (≈ 3.01 nM).

As a reminder, the pIC50 is the IC50 on a negative log10 scale, so that one unit is a factor of ten. Read a high pIC50 as a small IC50. As for `CCC(=O)N[C@@H]([C@@H]1OC(C(=O)O)=C[C@H](N=C(N)N)[C@H]1NC(C)=O)[C@H](O)CO.O=C(O)C(F)(F)F`, in experiment [2], the pIC50 was 7.70. Also, the IC50 in experiment [1] came to 4 ng/mL.

The compound `CCCCCCCC(=O)N[C@@H]([C@@H]1OC(C(=O)O)=C[C@H](N=C(N)N)[C@H]1NC(C)=O)[C@H](O)CO.O=C(O)C(F)(F)F` gave a negative-log IC50 (pIC50) in experiment [2] of 7.08. For the same compound, the midpoint of inhibition in experiment [1], the IC50, lay at 100 ng/mL.

As to `CC(=O)N[C@@H]1[C@@H](N=C(N)N)C=C(C(=O)O)O[C@H]1C[C@H](O)CO.O=C(O)C(F)(F)F`, the pIC50 in experiment [2] was 7.03. This compound gave an IC50 in experiment [1] of 10 ng/mL.

Compound `CO[C@@H]([C@@H]1OC(C(=O)O)=C[C@H](N=C(N)N)[C@H]1NC(C)=O)[C@H](O)CO.O=C(O)C(F)(F)F` gave a concentration for half-maximal inhibition (IC50) in experiment [1] of 3 ng/mL.

For the compound `CC(=O)N[C@@H]([C@@H]1OC(C(=O)O)=C[C@H](N=C(N)N)[C@H]1NC(C)=O)[C@H](O)CO`, the negative-log IC50 (pIC50) in experiment [2] is 7.43.

For `CC(=O)N[C@@H]1[C@@H](NC(=N)N)C=C(C(=O)O)O[C@H]1C(F)(F)[C@H](O)CO.O=C(O)C(F)(F)F`, the negative-log IC50 (pIC50) in experiment [2] is 5.99. For the same compound, the half-inhibitory concentration (IC50) in experiment [1] worked out at 400 ng/mL.

`CC(=O)N[C@H]1[C@H]([C@H](F)[C@H](O)CO)OC(C(=O)O)=C[C@@H]1NC(=N)N.O=C(O)C(F)(F)F` had a pIC50 in experiment [2] of 8.75. In addition, half-maximal inhibition in experiment [1] (IC50) required 1.8 ng/mL.

Compound `CC(=O)N[C@H]1[C@H]([C@H](N)[C@H](O)CO)OC(C(=O)O)=C[C@@H]1NC(=N)N.O=C(O)C(F)(F)F` showed a pIC50 in experiment [2] of 7.08. This compound also had an IC50 in experiment [1] of 20 ng/mL.

`CCO[C@@H]([C@@H]1OC(C(=O)O)=C[C@H](N=C(N)N)[C@H]1NC(C)=O)[C@H](O)CO.O=C(O)C(F)(F)F`: the negative logarithm of the IC50 (pIC50) in experiment [2] was 7.51. This compound also showed a concentration for half-maximal inhibition (IC50) in experiment [1] of 0.7 ng/mL.

In experiment [2], `CC(=O)N[C@H]1[C@H]([C@H](N=[N+]=[N-])[C@H](O)CO)OC(C(=O)O)=C[C@@H]1NC(=N)N.O=C(O)C(F)(F)F` showed a negative-log IC50 (pIC50) of 8.47. This compound gave a half-inhibitory concentration (IC50) in experiment [1] of 0.3 ng/mL.

Take `CCCCCCCCCCCCCCCC(=O)N[C@@H]([C@@H]1OC(C(=O)O)=C[C@H](N=C(N)N)[C@H]1NC(C)=O)[C@H](O)CO.O=C(O)C(F)(F)F`: the pIC50 in experiment [2] was 7.16. Also, the IC50 in experiment [1] came out at 80 ng/mL.
